One compound from US20260365732A1, “METHODS OF TREATING CANCER IN SUBJECTS WITH PRIOR IMMUNE CHECKPOINT INHIBITOR EXPOSURE” (Curis, Inc., priority 2023, published 2026) can be followed below.

The nature of series [1]: Study Compound 1-101 (safety, drug exposure, biologic activity and clinical efficacy at 200 mg BID). Type of series: in vivo, human. The source says: Three patients with AML or MDS will be enrolled at the designated dose. If none of the first 3 patients experience a dose-limiting toxicity during the first cycle, patients may be enrolled into the next higher dose level. If 1 patient out of the first 3 experiences a dose-limiting toxicity, the dose level may be expanded with an additional 3 patients.

The test system of series [2] is bone marrow (BM) blasts. Briefly: Clinical study of emavusertib (Compound 1) on bone marrow (BM) blasts in AML / hrMDS patients with vs without prior immune checkpoint inhibitor exposure (FIG. 1A, FIG. 1B). Type of series: in vivo, human. The source says: FIG. 1A is a graph showing the results of a clinical study for the efficacy of emavusertib (Compound 1) administration on reducing bone marrow (BM) blasts in patients with blood cancer. Blasts are immature white blood cells that are usually found in small numbers in healthy bone marrow. High levels of blasts circulating in the blood are associated with cancer. This clinical study measured the change in blast levels before and after receiving Compound 1 treatment. Here, the relative change in blast levels before and after Compound 1 is compared between patients who had previously received immune checkpoint inhibitors in prior treatment and patients who were naïve to immune checkpoint inhibitors. The comparison groups each contain at least 5 high risk myelodysplastic syndrome (hrMDS) patients and 1 acute myeloid leukemia (AML) patient.
FIG. 1B is a graph showing baseline and best post-treatment blast levels of the subjects in FIG. 1A. […] Each patient is shaded according to their diagnosis.
To support the development of effective treatment regimens with Compound 1, a study was conducted to monitor bone marrow (BM) samples obtained from AML and high risk MDS patients with different prior histories of treatment. […] The present disclosure relates to methods of treating cancer with Compound 1 and other IRAK4 inhibitors or degraders, wherein the subject has a history of treatment with an immune checkpoint inhibitor.
This is a Phase 1, open-label dose escalation and cohort expansion study of Compound 1 as a monotherapy in patients with AML or MDS and in combination with AZA in treatment-naïve, adult patients with AML or hrMDS or in combination with VEN in patients with relapsed/refractory AML or hrMDS, after first line therapy.

On to `Cc1cc(-c2nc(C(=O)Nc3cc4oc(N5CCOCC5)nc4nc3N3CC[C@@H](O)C3)co2)ccn1` [Compound 1, emavusertib], for which, in series [1], the “biologic activity and clinical efficacy” value is “signs of biologic activity and clinical efficacy”; the “safety of starting dose level” value is on record as “safe”. Further, the “rate of response, as evidenced by reduced BM blast counts in hematology” value in series [2] (AML and high risk MDS patients, history of treatment with an immune checkpoint inhibitor vs no prior exposure) is “higher rate of response”. Besides, the “relative change in blast levels before and after Compound 1” value in series [2] (patients with prior immune checkpoint inhibitors (magrolimab, ipilimumab, or nivolumab + ipilimumab) vs not previously exposed, each group at least 5 hrMDS and 1 AML patient, FIG. 1A) is recorded as “significant reduction in blasts”. In addition, in series [2] (prior immune checkpoint inhibitor exposure compared to no prior exposure, FIG. 1B), the “change in bone marrow blast counts from baseline to best post-baseline” value was “higher decreases in bone marrow blast counts”. The “baseline vs best post-baseline bone marrow blasts counts” value in series [2] (prior immune checkpoint inhibitor exposure vs without exposure, FIG. 1A) is “significant difference”.
